Test results from patent US6140338A, “Chemokine receptor antagonists” (Banyu Pharmaceutical, Co., Ltd., priority 1996, dated 2000).
Each block holds one molecule with its values, some of them ahead of it.

Experiments:
[1] = target: T1, human chemokine receptor CCR1 (Homo sapiens, UniProt P32246); assay: Inhibitory activity against binding to the chemokine receptor CCR1 ([125I]MIP-1 alpha binding, CHO cells); conditions: 50 pM [125I]MIP-1 alpha, 90 minutes, 37° C, pH 7.4, CHO cells expressing CCR1; read-out: 50% inhibitory concentration (IC50 value) against [125I]MIP-1 alpha binding
T1 construct: expressed in transfected cells
T1 sequence (P32246 1-355): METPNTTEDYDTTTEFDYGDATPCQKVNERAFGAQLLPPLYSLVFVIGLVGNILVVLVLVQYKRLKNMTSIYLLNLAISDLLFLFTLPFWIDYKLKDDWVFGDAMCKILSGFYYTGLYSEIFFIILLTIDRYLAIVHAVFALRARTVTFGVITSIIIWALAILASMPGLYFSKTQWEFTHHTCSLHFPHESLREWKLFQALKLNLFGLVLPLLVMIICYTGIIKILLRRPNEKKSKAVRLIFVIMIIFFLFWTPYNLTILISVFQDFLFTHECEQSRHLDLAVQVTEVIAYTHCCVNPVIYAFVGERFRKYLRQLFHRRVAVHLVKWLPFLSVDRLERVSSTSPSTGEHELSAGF
Experimental: cDNAs which code human chemokine receptor CCR1 was subcloned to Hind III/Xba I part of the expression vector pRc/CMV (Invitrogen) to prepare pRc/CMV CCR1. Then, pRc/CMV CCR1 was transfected to CHO cells by using lipofectamine (GIBCO) to obtain a stable cell strain resistant against 0.5 mg/ml of G418.
The stable cell strain, 50 pM[^125 I]MIP-1 alpha (2000 Ci/mmol, manufactured by New England Nuclear) and a test compound were suspended in 0.2 ml of Krebs-Ringer/0.1% bovine serum albumin/0.1% glucose (pH 7.4), and incubated for 90 minutes at a temperature of 37° C. Then, it was subjected to filtration by means of a glass filter GF/C which was preliminarily impregnated in 1% of polyethyleneimine, and washed with 1 ml of Krebs-Ringer/0.1% bovine serum albumin/0.1% glucose (pH 7.4), whereby radio activity on the glass filter was measured. The binding affinity to the chemokine receptors CCR1 was shown as a 50% inhibitory concentration (IC50 value) of the compound of the present invention against [^125 I]MIP-1 alpha binding.

[2] = target: T2, chemokine receptor CCR3 (Homo sapiens, UniProt P51677); assay: Inhibitory activity against binding to the chemokine receptor CCR3 ([125I]Eotaxin binding, CHO cells); conditions: 50 pM [125I]Eotaxin, 90 minutes, 37° C, pH 7.4, CHO cells expressing CCR3; read-out: 50% inhibitory concentration (IC50 value) against [125I]Eotaxin binding
T2 construct: expressed in transfected cells
T2 sequence (P51677 1-355): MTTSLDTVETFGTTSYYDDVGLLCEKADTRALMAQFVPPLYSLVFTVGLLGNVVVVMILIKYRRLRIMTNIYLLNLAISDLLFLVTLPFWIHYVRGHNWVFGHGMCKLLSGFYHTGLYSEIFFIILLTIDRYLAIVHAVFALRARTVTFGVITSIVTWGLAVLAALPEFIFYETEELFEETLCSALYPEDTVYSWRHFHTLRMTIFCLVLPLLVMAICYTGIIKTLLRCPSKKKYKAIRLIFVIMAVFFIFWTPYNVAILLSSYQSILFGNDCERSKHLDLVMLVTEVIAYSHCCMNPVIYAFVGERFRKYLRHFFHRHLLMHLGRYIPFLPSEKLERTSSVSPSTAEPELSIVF
Experimental: Further, an expression vector of a gene which codes chemokine receptor CCR3 was transfected to CHO cell by using lipofectamine to obtain a stable cell strain resistant against 0.5 mg/ml of G418. The stable cell strain, 50 pM[^125 I]Eotaxin (2000 Ci/mmol, manufactured by Amersham) and a test compound were suspended in 0.2 ml of Krebs-Ringer/0.1% bovine serum albumin/0.1% glucose (pH 7.4) and incubated for 90 minutes at a temperature of 37° C. Then, it was subjected to filtration by means of a glass filter GF/C which was preliminarily impregnated in 1% polyethyleneimine, and washed with 1 ml of Krebs-Ringer/0.1% bovine serum albumin/0.1% glucose (pH 7.4), whereby radio activity on the glass filter was measured. The binding affinity to the chemokine receptors CCR3 was shown as a 50% inhibitory concentration (IC50 value) of the compounds of the present invention against [^125 I]Eotaxin binding.

[3] = system: CCR3; assay: CCR3 antagonist activities (Eotaxin-induced intracellular calcium increase in human eosinophils); format: cell-based; conditions: 41 nM compound 5 minutes before agonist Eotaxin (10 nM), Fura2
Experimental: By using human eosinophil which stably express CCR3, the activity of the compounds of the present invention to intracellular calcium concentration was measured by the following method. […] of Fura2 acetoxymethyl ester (produced by Dojin Kagaku Laboratories) was added to eosinophils and incubated for 30 minutes at a temperature of 37° C. Then, the mixture was excited by irradiation with light at 340 nm and 380 nm, fluorescence at 500 nm was measured, 340/380 ratio was monitored, thereby intracellular calcium concentration was calculated.

[4] = system: chemokine receptor CCR1; assay: Activities to intracellular cyclic AMP concentration (CHO cells stably expressing CCR1); format: cell-based, human
Experimental: By using CHO cells which stably express the chemokine receptor CCR1, the activity of the test compounds to intracellular cyclic AMP concentration had been studied.
The CHO cells was suspended in Locke's solution (pH 7.4:154 mM of sodium chloride, 5.6 mM of potassium chloride, 2 mM of calcium chloride, 1 mM of magnesium chloride, 0.1% glucose, 10 mM of Hepes and 0.3 mM of isobutylmethylxanthine), and preliminarily incubated at a temperature of 37° C. for 5 minutes, and 100 nM of hMIP-1 alpha and 0.01 mM of Forskolin were added thereto. The reaction was kept for 10 minutes and terminated by adding trichloroacetic acid. The reaction mixture was centrifuged at 15000 rpm for 5 minutes and supernatant was obtained. Trichloroacetic acid in the supernatant was removed by extraction with diethyl ether, and the supernatant was evaporated to dryness by centrifugal evaporator. The cyclic AMP concentration in the sample thus obtained was measured by cyclic AMP kit (produced by Amersham). The activity of test compounds to the cyclic AMP concentration was obtained by studying antagonism against hMIP-1 alpha by adding 0.01 mM of the test compounds 5 minutes before adding 100 nM of hMIP-1 alpha.

[5] = control reactions: 0.01 mM Forskolin solely, or with 100 nM hMIP-1 alpha, no test compound

IC50 [1]: 3.9 nM
IC50 [2]: 13 nM
Molecule: C[N+]1(CC2CCCCCCC2)CCC(NC(=O)C2c3cc(Br)ccc3Oc3ccc(Br)cc32)CC1 (stereo not drawn) [Example 22, 1-cyclooctylmethyl-1-methyl-4-(2,7-dibromoxanthene-9-carboxamido)piperidinium iodide]

IC50 [1]: 1.8 nM
IC50 [2]: 0.74 nM
Molecule: CC[N+]1(CC2=CCCCCCC2)CCC(NC(=O)C2c3cc(Cl)ccc3Oc3ccc(Cl)cc32)CC1 (stereo not drawn) [Example 62 (named cis for convenience), cis*-1-(1-cyclooctenylmethyl)-1-ethyl-4-(2,7-dichloroxanthene-9-carboxamido)piperidinium bromide]

IC50 [1]: 1.9 nM
IC50 [2]: 2.7 nM
Molecule: CC[N+]1(CC2CCCCCCC2)CCC(NC(=O)C2c3cc(Br)ccc3Oc3ccc(Br)cc32)CC1 (single isomer, unassigned) [Example 26 (named cis for convenience), cis*-1-cyclooctylmethyl-1-ethyl-4-(2,7-dibromoxanthene-9-carboxamido)piperidinium iodide]
inhibitory ratio (%) of increase in the concentration of intracellular calcium [3]: 51%

IC50 [1]: 1.8 nM
IC50 [2]: 1.7 nM
Molecule: O=C(NC1CCN(CC2=CCCCCCCC2)CC1)C1c2ccccc2Oc2ccccc21 [Example 61 (named cis for convenience)]

Molecule: CC[N+]1(CC2=CCCCCCC2)CCC(NC(=O)C2c3cc(Cl)ccc3Oc3ccc(Cl)cc32)CC1 (stereo not drawn) [Example 59 (named cis for convenience), cis*-1-(1-cyclooctenylmethyl)-1-ethyl-4-(2,7-dichloroxanthene-9-carboxamido)piperidinium iodide]
inhibitory ratio (%) of increase in the concentration of intracellular calcium [3]: 97%

IC50 [1]: 5.2 nM
IC50 [2]: 40 nM
Molecule: CC[N+]1(CC2CCCCCCC2)CCC(NC(=O)C2c3ccccc3Oc3ccccc32)CC1.[I-] (stereo not drawn) [Example 12, 1-cyclooctylmethyl-1-ethyl-4-(xanthene-9-carboxamido)piperidinium iodide]
cAMP concentration ([4]; 0.01 mM Forskolin + 100 nM hMIP-1 alpha + 0.01 mM test compound added 5 minutes before hMIP-1 alpha): 81.6 +/- 4.2 pmol/10^6 cells

Molecule: C=C[C@@]1(C)CC(=O)[C@]2(O)[C@@]3(C)[C@@H](O)CCC(C)(C)[C@@H]3[C@H](O)[C@H](OC(C)=O)[C@@]2(C)O1 [Forskolin, reference compound]
cAMP concentration [4, 5]: 67.8 +/- 8.4 pmol/10^6 cells

B1: hMIP - 1 alpha: chemokine (polypeptidic leukocytic migration factor), agonist used at 100 nM (protein, UniProt P10147 24-92, looked up)
C-C motif chemokine 3: SLAADTPTACCFSYTSRQIPQNFIADYFETSSQCSKPGVIFLTKRSRQVCADPSEEWVQKYVSDLELSA
cAMP concentration [4, 5]: 47.7 +/- 4.2 pmol/10^6 cells
